Holding throughout (experiment): growth of human tumour cells (NCI), 48 h
Test [1] has as its system DMS-114.
Test [2] has as its system KM-20L2.
Test [3] concerns LXFL 529.
Test [4] has as its system Hs-578T.
Test [5] relates to PC-3.
For test [6], the system named is T47D.
For test [7], the system named is 786-0.
Test [8] deals with XF498.
Test [9] has as its system RXF 631.

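Values below derive from 48-hour exposures of cells grown in 96-well plates, with endpoints linearly interpolated between the two concentrations bracketing the appropriate inhibition level. GI50: concentration for 50% inhibition of growth.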 Active and inactive are the calls of the source. Rule as the data show it: active = GI50 up to about 1.1 µM and inactive = higher.

The values below come from ChEMBL document CHEMBL1201862, “PubChem BioAssay data set” (2004).

Consider `COc1ccc(C(=O)NNC(=O)c2nsc3ccccc23)cc1`, for which the values for the GI50 in test [1], in [2] and in test [3] were 63 µM (inactive), 35.9 µM (inactive) and > 100 µM (inactive), respectively.
As to `CCOC(=O)C1CCn2c(nc3c2c(=O)n(C)c(=O)n3C)S1` (stereo unspecified), the GI50 in test [2] and in test [3] was > 100 µM (inactive) in each case.
Take `CCC(=O)NC(Nc1cccc(F)c1)(C(F)(F)F)C(F)(F)F`: the GI50 in test [4] is 98.6 µM (inactive); in [5], > 100 µM (inactive); in test [6] it was > 100 µM (inactive).
Take `C[C@H]1S[C@@H](c2ccc(Cl)cc2Cl)N(NC(=O)c2ccncc2)C1=O`: the figures for the GI50 in test [4], in test [5] and in [6] were 94.2 µM (inactive), 33 µM (inactive) and 33 µM (inactive), respectively.
In the case of `Nc1ccccc1C(=O)N/N=C1\C(=O)Nc2ccccc21`, the GI50 in [7] was 37.6 µM (inactive); in [4] it was 37.7 µM (inactive); in test [5] it was > 100 µM (inactive); in test [6] it was > 100 µM (inactive).
On to `Cc1n[nH]c(CC#N)n1`, for which the GI50 in test [7] and in test [5] was > 100 µM (inactive) in each case.
For the molecule `COC(=O)C(F)C(Br)C(=O)OC` (stereo unspecified), the GI50 in test [7] was 2.52 µM (inactive); in test [4], 16.6 µM (inactive); in test [5] it was 3.63 µM (inactive); in [6] it was 2.15 µM (inactive).
`COc1cc(/C=C2\N=C(c3ccccc3)N(C3Nc4cc5c(cc4S3)NC(N3C(=O)/C(=C/c4cc(OC)c(OC)c(OC)c4)N=C3c3ccccc3)S5)C2=O)cc(OC)c1OC` (stereo unspecified): the GI50 was 61.1 µM (inactive) in test [7], > 100 µM (inactive) in test [4], 82.6 µM (inactive) in [5] and 56.2 µM (inactive) in test [6].
For `COc1cc2cc(C(=O)N3CC(CCl)c4ccc(NO)cc43)[nH]c2c(OC)c1OC` (stereo unspecified) the same measures were 0.287 µM (active), 0.296 µM (active), 0.0914 µM (active) and 0.436 µM (active).
As for `OC1CCOc2ccccc21` (stereo unspecified), the GI50 in [1], in test [2], in [3] and in [8] was > 100 µM (inactive) throughout.
As for `O=C1Nc2ccc(Cl)cc2/C1=C\c1c(Cl)nc2sccn12`, the GI50 in test [5] was 4.93 µM (inactive); in test [6] it was > 100 µM (inactive).
For the molecule `COP(=O)(OC)C(N)Cc1c[nH]c2ccccc12` (stereo unspecified), the GI50 in test [4], in [5] and in [6] was > 100 µM (inactive) each time.
In the case of `Nc1ccn(C2OC(CO[PH](=O)OC3C(CO[PH](=O)OC4C(CO[PH](=O)OC5C(CO[PH](=O)OC6C(CO[PH](=O)OC7C(CO[PH](=O)OC8C(CO[PH](=O)OC9C(CO[PH](=O)OC%10C(CO[PH](=O)OC%11C(CO)OC(n%12ccc(N)nc%12=O)C%11(F)F)OC(n%11ccc(N)nc%11=O)C%10(F)F)OC(n%10ccc(N)nc%10=O)C9(F)F)OC(n9ccc(N)nc9=O)C8(F)F)OC(n8ccc(N)nc8=O)C7(F)F)OC(n7ccc(N)nc7=O)C6(F)F)OC(n6ccc(N)nc6=O)C5(F)F)OC(n5ccc(N)nc5=O)C4(F)F)OC(n4ccc(N)nc4=O)C3(F)F)C(O)C2(F)F)c(=O)n1` (stereo unspecified), the values for the GI50 in test [4], in test [5] and in test [6] were 2.22 µM (inactive), 5.5 µM (inactive) and 0.553 µM (active), respectively.
As for `O=C1CCC(NC(=O)Cc2ccc(O)cc2)C(=O)N1` (stereo unspecified), the GI50 is > 2500 µM (inactive) in test [1]; > 2500 µM (inactive) in [2]; > 2500 µM (inactive) in test [3]; > 2.5 mM (inactive) in test [9]; > 2500 µM (inactive) in test [8].
As for `Cc1ccc(C2CC(c3cccc([N+](=O)[O-])c3)=Nc3ccccc3S2)cc1` (stereo unspecified), the GI50 in test [7] was 21.8 µM (inactive); in test [1], 22.5 µM (inactive); in test [2] it was 44.5 µM (inactive); in [3], 27.2 µM (inactive); in [9], > 0.0938 mM (inactive); in test [8] it was 21.4 µM (inactive).
For the molecule `O=C1CSC(/C=C/c2ccccc2)N1c1nc2cc3sc(N4C(=O)CSC4/C=C/c4ccccc4)nc3cc2s1` (stereo unspecified), the GI50 in [7] is > 58.9 µM (inactive); in test [4], > 54 µM (inactive); in test [5] it was 54.2 µM (inactive); in test [6], > 100 µM (inactive).
Regarding `CC1CC(C[N+](=O)[O-])CC2(C1)OCCO2` (stereo unspecified), the GI50 in [7], in test [1], in test [2] and in [3] was > 100 µM (inactive) each time.
With `COc1ccccc1N1C(=O)/C(=C\c2cc(OC)c(OC)c(OC)c2)SC1c1ccccc1` (stereo unspecified), the GI50 in test [7] was 97.5 µM (inactive); in test [4] it was 24 µM (inactive); in [6] it was 36.6 µM (inactive).
As for `O=C(OCCOC(=O)c1ccc2c(c1)C1(SCCS1)c1ccccc1-2)c1ccc2c(c1)C1(SCCS1)c1ccccc1-2`, the GI50 in [1], in test [2] and in [3] was > 100 µM (inactive) each time.
Consider `O=C1NC(O)CCN1C1OC(CO)C(O)C1O` (stereo unspecified), for which the GI50 was > 250 µM (inactive) in test [1], > 68.7 µM (inactive) in test [2] and > 250 µM (inactive) in test [8].
For the molecule `CC/C=C\C/C=C\C/C=C\CCCCCCCC(=O)OC` [METHYL LINOLENATE], the GI50 in test [1] and in test [8] was > 100 µM (inactive) in each case.
